In brackets after ≈: the same amount, converted by molar mass. Where two headings read alike, the source gives them in different places.
Key:
[1] = system: MRSA USA300; experiment: Broth microdilution MIC, initial antibacterial screening; type: cell-based, S. aureus; conditions: Staphylococcus aureus; MRSA USA300; read-out: MIC
Experimental: (§1) The minimum inhibitory concentrations (MICs) of the tested compounds and control drugs against clinically-relevant bacterial strains were determined using the broth microdilution method, according to guidelines outlined by the Clinical and Laboratory Standards Institute (CLSI), or as described previously.
(§2) Initial screening of the bisphenylthiazoles against Gram-positive and Gram-negative bacteria. Bacterial strains, (except C. difficile that was grown anaerobically on brain heart infusion supplemented agar at 37° C for 48 hours), were grown aerobically overnight on tryptone soy agar plates at 37° C. Afterwards, a bacterial solution equivalent to 0.5 McFarland standard was prepared and diluted in cation-adjusted Mueller-Hinton broth (CAMHB) (for S. aureus, and E. coli) to achieve a bacterial concentration of about 5 × 10^5 CFU/mL. C. difficile was diluted in brain heart infusion supplemented broth, supplemented with yeast extract, hemin and vitamin K to achieve a bacterial concentration of about 5 × 10^5 CFU/mL. Compounds and control drugs were added in the first row of the 96 -well plates, and serially diluted with the corresponding media containing bacteria. Plates were then, incubated aerobi cally at 37° C for 18-20 hours (for S. aureus and E. coli). C. difficile was incubated anaerobically at 37° C for 48 hours. […]
(§3) the visual growth of bacteria.

[2] = system: C. difficile ATCC BAA1870; experiment: Broth microdilution MIC, initial antibacterial screening (anaerobic); type: cell-based, Clostridioides difficile; conditions: Clostridioides difficile, ATCCBAA1870, read-out: MIC
Experimental: as §1, §2, §3

[3] = system: E. coli JW55031 (tolC-mutant); experiment: microbe, parasite or virus in culture; type: cell-based, Escherichia coli; conditions: Escherichia coli
Experimental: as §1, §2, §3

[4] = system: E. coli BW25113 (wild-type); experiment: Broth microdilution MIC, initial antibacterial screening; type: cell-based, Escherichia coli; conditions: Escherichia coli, read-out: MIC
Experimental: as §1, §2, §3

[5] = system: Candida albicans; experiment: Antifungal broth microdilution MIC (50% growth inhibition) and MFC; type: cell-based; conditions: Candida albicans; for MIC: read-out: MIC
Experimental: (§4) Serial dilutions (from 128 μg/mL to 0.06 μg/mL) of the tested compounds and control drugs (fluconazole, itraconazole and amphotericin) (in triplicates), were screened against clinical isolates of Candida albicans, Candida auris, Candida glabrata, Candida parapsilosis, Candida tropicalis, Candida krusei, Cryptococcus neoformans, Cryptococcus gattii and Aspergillus fumigatus species using the broth microdilution method according to the Clinical and Laboratory Standards Institute guidelines. MICs were determined as the lowest concentration of the compounds that inhibited the fungal growth by 50% after incubation at 35 °C for 24 h (for Candida and Aspergillus), or 48 h (for Cryptococcus). The minimum fungicidal concentration (MFC) of these compounds was tested by plating 4 μL from wells with no growth onto YPD agar plates. The plates were incubated at 37 °C for 24 hours before recording the MFC, which was categorized as the lowest concentration that reduced fungal growth by 99.9% [45]. The experiment was repeated three independent times.

[6] = system: Candida auris; experiment: as above; type: cell-based
Experimental: as §4

[7] = system: Candida glabrata; experiment: as above; type: cell-based; conditions: Nakaseomyces glabratus, read-out: MIC
Experimental: as §4

[8] = system: Candida krusei; experiment: as above; type: cell-based; conditions: Pichia kudriavzevii; for MIC: read-out: MIC
Experimental: as §4

[9] = system: Candida tropicalis; experiment: as above; type: cell-based; conditions: Candida tropicalis, ATCC1369, C. tropicalis ATCC 1369; for MIC: read-out: MIC
Experimental: as §4

[10] = system: Lactobacillus casei ATCC-334; experiment: Broth microdilution MIC against normal human microbiota; type: cell-based; conditions: Lacticaseibacillus casei, ATCC334
Experimental: (§5) Broth microdilution was utilized to determine the activity of bisphenylthiazoles against the human gut microflora as described elsewhere. A bacterial solution equivalent to 0.5 McFarland standards was prepared and diluted in MRS broth to achieve a bacterial concentration of approximately 5 x 10^5 CFU/mL. Then, compounds/control antifungals (in triplicates), were added to the plates and serially diluted with media containing bacteria. The plates were incubated for 48 hours at 37 °C before recording the MIC values. The experiment was repeated three independent times.

[11] = system: Lactobacillus crispatus HM-370; experiment: as above; type: cell-based; conditions: HM370
Experimental: as §5

[12] = system: Lactobacillus gasseri HM-400; experiment: as above; type: cell-based; conditions: HM400
Experimental: as §5

[13] = system: Cryptococcus gattii; experiment: Antifungal broth microdilution MIC (50% growth inhibition, 48 h); type: cell-based; conditions: Cryptococcus gattii, read-out: MIC
Experimental: as §4

[14] = system: Cryptococcus neoformans; experiment: as above; type: cell-based; conditions: Cryptococcus neoformans, read-out: MIC
Experimental: as §4

[15] = system: Aspergillus fumigatus; experiment: Antifungal broth microdilution MIC (50% growth inhibition); type: cell-based; conditions: Aspergillus fumigatus, read-out: MIC
Experimental: as §4

[16] = system: Candida parapsilosis; experiment: as above; type: cell-based; conditions: Lodderomyces parapsilosis, read-out: MIC
Experimental: as §4

[17] = system: human colorectal cells (Caco-2); experiment: In vitro cytotoxicity, MTS assay; conditions: human, 24 h
Experimental: (§6) Fig 2 In vitro cytotoxicity assay of bisphenylthiazole compounds 7, 16 and 17 (tested in triplicates at 32, 64 and 128 μg/mL) against: A) human colorectal cells (Caco-2), and B) monkey kidney epithelial cells (Vero) after 24-hours exposure time, using the MTS 3-(4,5-dimethylthiazol-2-yl)-5-(3-carboxymethoxyphenyl)-2-(4-sulfophenyl)-2H-tetrazolium) assay. The data represent the percentage of viable Caco-2 or Vero cells measured as the average absorbance relative to DMSO after exposure to the tested compounds. Dimethyl sulfoxide (DMSO) was used as a negative control. Error bars represent the standard deviation values.
(§7) To explore the tolerability of bisphenylthiazoles, their cytotoxicity profile was assessed in human colorectal adenocarcinoma (Caco-2) and monkey kidney epithelial cells (Vero) as described earlier. Briefly, compounds were incubated with the cells for 24 hours. Then, cells were incubated with MTS reagent for 3 hours before measuring the absorbance values (OD490). The experiment was repeated in two independent times.

[18] = system: monkey kidney epithelial cells (Vero); experiment: In vitro cytotoxicity, MTS assay; conditions: Vero, 24 h exposure, MTS
Experimental: as §6, §7

[19] = GSH trap (reactive metabolite); type: in vitro ADME; conditions: reactive metabolite formation
[20] = system: Candida strains; experiment: Minimum fungicidal concentration, summary over Candida strains; type: cell-based; conditions: strains of Table 6
Experimental: as §4

[21] = system: Candida auris; experiment: Checkerboard assay of compound 17 with standard antifungals; type: cell-based; conditions: for Interpretation of interaction: antifungal combined with compound 17; for MIC Combined, Antifungal: antifungal in combination with compound 17; for MIC: Candidozyma auris, checkerboard, agent alone
Experimental: To evaluate the interactions between bisphenylthiazoles and the standard antifungal agents (fluconazole, amphotericin B, 5-fluorocytosine and caspofungin) against 2 C. auris clinical isolates, a standard checkerboard assay was utilized as described in previous studies. The fractional inhibitory concentration index (FICI) was calculated for each interaction. Interactions where the FICI was ≤0.5 were categorized as synergistic (SYN). FICI values of >0.5–1.25 were categorized as additive (ADD). FICI values of >1.25–4 were categorized as indifferent, and FICI values of > 4 were categorized as antagonistic. The experiment was repeated three independent times.

[22] = ATCC10231, C. albicans ATCC 10231
[23] = C. albicans NR-29448 (fluconazole-resistant)
[24] = Candidozyma auris, C. auris 381, read-out: MIC
[25] = Candidozyma auris, C. auris 382, read-out: MIC
[26] = Candidozyma auris, C. auris 387, read-out: MIC
[27] = ATCC34135, C. krusei ATCC 34135
[28] = ATCC22019, C. parapsilosis ATCC 22019
[29] = Candida auris 381 (azole-sensitive)
[30] = Candida auris 385 (azole-resistant)

Cc1nc(-c2ccc(-c3ccccc3)cc2)sc1-c1nnc(NCCN)o1 [Compound 7, N-{5-[2-((1,1’-Biphenyl)-4-yl)-4-methylthiazol-5-yl]-1,3,4-oxadiazol-2-yl}ethane-1,2-diamine]
MIC [1]: 32 mg/L (≈ 84.8 µM)
MIC [2]: > 64 mg/L
MIC [3]: 64 mg/L (≈ 170 µM)
MIC [4]: > 64 mg/L
MIC [5, 22]: 8 mg/L (≈ 21.2 µM)
MIC [5, 23]: 16 mg/L (≈ 42.4 µM)
MIC ([5]; C. albicans SS5314 (wild-type)): 4 mg/L (≈ 10.6 µM)
MIC [6, 24]: 8 mg/L (≈ 21.2 µM)
MIC [6, 25]: 8 mg/L (≈ 21.2 µM)
MIC ([6]; Candidozyma auris, C. auris 383, read-out: MIC): 2 mg/L (≈ 5.3 µM)
MIC ([6]; Candidozyma auris, C. auris 384, read-out: MIC): 4 mg/L (≈ 10.6 µM)
MIC ([6]; Candidozyma auris, C. auris 385, read-out: MIC): 4 mg/L (≈ 10.6 µM)
MIC ([6]; Candidozyma auris, C. auris 386, read-out: MIC): 8 mg/L (≈ 21.2 µM)
MIC [6, 26]: 8 mg/L (≈ 21.2 µM)
MIC ([6]; Candidozyma auris, C. auris 388, read-out: MIC): 4 mg/L (≈ 10.6 µM)
MIC ([6]; Candidozyma auris, C. auris 389, read-out: MIC): 8 mg/L (≈ 21.2 µM)
MIC ([6]; Candidozyma auris, C. auris 390, read-out: MIC): 2 mg/L (≈ 5.3 µM)
MIC ([7]; ATCC66032, C. glabrata ATCC 66032): 2 mg/L (≈ 5.3 µM)
MIC ([7]; C. glabrata ATCC MYA-2950): 1 mg/L (≈ 2.65 µM)
MIC [8, 27]: 2 mg/L (≈ 5.3 µM)
MIC ([8]; C. krusei CAB 396420): 2 mg/L (≈ 5.3 µM)
MIC [9]: 8 mg/L (≈ 21.2 µM)
MIC ([10]; Lactobacillus casei ATCC-334, read-out: MIC): > 128 mg/L
MIC ([11]; Lactobacillus crispatus HM-370, read-out: MIC): > 128 mg/L
MIC ([12]; Lactobacillus gasseri HM-400, read-out: MIC): 64 mg/L (≈ 170 µM)
MIC ([13]; C. gattii NR 43209): 2 mg/L (≈ 5.3 µM)
MIC ([13]; C. gattii NR 43210): 2 mg/L (≈ 5.3 µM)
MIC ([14]; C. neoformans NR 41298): 2 mg/L (≈ 5.3 µM)
MIC ([14]; C. neoformans NR 41300): 4 mg/L (≈ 10.6 µM)
MIC ([14]; C. neoformans NR 48770): 2 mg/L (≈ 5.3 µM)
MIC ([15]; A. fumigatus NR 35303): 16 mg/L (≈ 42.4 µM)
MIC ([15]; A. fumigatus NR 35304): 8 mg/L (≈ 21.2 µM)
MIC [16, 28]: 2 mg/L (≈ 5.3 µM)
MIC ([16]; C. parapsilosis CAB 502638): 2 mg/L (≈ 5.3 µM)
concentration up to which non-toxic [17]: ≤ 64 µg/mL
concentration up to which non-toxic [18]: ≤ 64 µg/mL
GSH trap [19]: -ve
melting point: 145 to 146 °C

OC(Cn1cncn1)(Cn1cncn1)c1ccc(F)cc1F [Fluconazole, reference compound]
MFC [5, 22]: > 128 mg/L
MIC [5, 22]: 1 mg/L (≈ 3.27 µM)
MIC [5, 23]: > 128 mg/L
MIC ([5]; C. albicans SS5314 (wild-type)): 1 mg/L (≈ 3.27 µM)
MFC ([5]; C. albicans NR-29448): > 128 mg/L
MIC ([6]; C. auris 383): >128 mg/L
MIC ([6]; C. auris 384): >128 mg/L
MIC ([6]; C. auris 385): >128 mg/L
MIC ([6]; C. auris 386): >128 mg/L
MIC ([6]; C. auris 389): >128 mg/L
MIC ([6]; C. auris 390): >128 mg/L
MFC ([6]; Candida auris 390): >128 mg/L
MIC [6, 24]: 1 mg/L (≈ 3.27 µM)
MIC [6, 25]: 8 mg/L (≈ 26.1 µM)
MIC [6, 26]: 8 mg/L (≈ 26.1 µM)
MFC ([6]; Candidozyma auris, Candida auris 389, read-out: MFC): > 128 mg/L
MIC [8, 27]: 16 mg/L (≈ 52.2 µM)
MFC ([8]; C. krusei CAB 396420): > 128 mg/L
MIC ([8]; C. krusei CAB 396420): 16 mg/L (≈ 52.2 µM)
MFC [9]: > 128 mg/L
MIC [9]: 0.5 mg/L (≈ 1.63 µM)
MIC [10]: > 128 mg/L
MIC ([11]; Lactobacillus crispatus): > 128 mg/L
MIC ([12]; Lactobacillus gasseri): > 128 mg/L
MIC ([13]; C. gattii NR 43209): 4 mg/L (≈ 13.1 µM)
MIC ([13]; C. gattii NR 43210): 4 mg/L (≈ 13.1 µM)
MIC ([14]; C. neoformans NR 41298): 2 mg/L (≈ 6.53 µM)
MIC ([14]; C. neoformans NR 41300): 1 mg/L (≈ 3.27 µM)
MIC ([14]; C. neoformans NR 48770): 2 mg/L (≈ 6.53 µM)
MIC [16, 28]: 1 mg/L (≈ 3.27 µM)
MIC ([16]; C. parapsilosis CAB 502638): 0.5 mg/L (≈ 1.63 µM)
fungistatic or fungicidal activity [20]: fungistatic
Interpretation of interaction [21, 29]: ADD (FICI values of >0.5–1.25 were categorized as additive (ADD))
MIC Combined, Antifungal [21, 29]: 1 mg/L
Interpretation of interaction [21, 30]: ADD (FICI values of >0.5–1.25 were categorized as additive (ADD))
MIC Combined, Antifungal [21, 30]: 0.25 mg/L
MIC [21, 29]: 1 mg/L
MIC [21, 30]: > 128 mg/L

— article PMC8568133, “Evaluation of bisphenylthiazoles as a promising class for combating multidrug-resistant fungal infections” (PLoS ONE, 2021)
